For this experiment, the system named is NLRP3 inflammasome pathway. The experiment in a line: NLRP3 inflammasome pathway activation assay, MSU stimulation, IL-1β HTRF. It is filed as cell-based. The conditions noted are these: read-out: IC50 Human monocyte-like cells MSU. How it is done: The following assays were used to determine the inhibitory activity of test compounds on the NLRP3 inflammasome pathway using common stimuli Nigericin (Invivogen) or monosodium urate crystals (MSU) (Invivogen).
Human monocyte-like cells were cultured in RPMI-1640 Glutamax medium supplemented with 10% heat inactivated FBS (Fetal Bovine Serum) and 50 U/mL penicillin-streptomycin (Life Technologies).
Human monocyte-like cells were seeded at 25000 per well in a 384-well plate and were differentiated overnight into macrophages with 10 ng/mL PMA (Phorbol Myristate Acetate). The following day, medium containing 10 ng/mL LPS (Lipopolysaccharide) was added. After 3 hours of LPS priming, concentrations of test compound in the range from […] were added 30 min prior to NLRP3 inflammasome pathway stimulation with Nigericin 3.75 μM or MSU 200 μg/mL for 3 h.
For IL-1p quantification, supernatants were analyzed using HTRF kit according to the manufacturer's instructions (Cisbio 62HIL1BPEH). Briefly, in a 384-well ProxiPlate™ microplate, 8 μl of sample was mixed, with 5 μl of Anti-IL1β Cryptate antibody (40×) and Anti-IL1β XL antibody (40×). Then, incubated overnight at RT. Reading was done using an EnVision Reader (PerkinElmer).
IC50 (concentration corresponding to 50% inhibition) were determined using GraphPad Prism 9.
A general note: In TR-FRET formats the signal depends on donor and acceptor labels being close together.

Where [1] appears, read: Homo sapiens, 3 h, Table 7, PMA-differentiated, LPS-primed cells, MSU 200 μg/mL for 3 h, IL-1β release.
Where [2] appears, read: Homo sapiens, 3 h, Table 8 (formula II′/II vs formula III), MSU 200 μg/mL for 3 h, IL-1β release.
Where [3] appears, read: Table 7, PMA-differentiated, LPS-primed cells, MSU 200 μg/mL for 3 h, IL-1β release.

The structures appear in SMILES notation. Structures can show the parent of a compound that is named as a salt. Where two headings read alike, the source gives them in different places. A value given as a limit tells only on which side of the number the result lay.

One may read the IC50 as the concentration at which inhibition is half-maximal. For `COc1ccc2c(n1)nc(-c1c(C)cc(Cl)cc1O)n2C(C)C` [Example 31, 5-chloro-2-(1-isopropyl-5-methoxy-1H-imidazo[4,5-b]pyridin-2-yl)-3-methylphenol], the IC50 under setting [1] fell in the range of 100 to 1000 nM.
On the same count and under the same terms, under `Cn1c(-c2ccc(Cl)cc2O)nc2nc(C(F)(F)F)ccc21` [Example 49, 5-chloro-2-(1-methyl-5-(trifluoromethyl)-1H-imidazo[4,5-b]pyridin-2-yl)phenol] stands 100 to 1000 nM.
In the case of `CN1CCC[C@@H](Nc2ccc3c(n2)nc(-c2ccc(C(F)(F)F)cc2O)n3C)C1` [Example 2], the IC50 is, setting by setting: under setting [1], 100 to 1000 nM; under setting [2], 100 to 500 nM.
Consider `Cn1c(-c2ccc(C(F)(F)F)cc2O)nc2nc(NCCO)ccc21` [Example 1, 2-(5-((2-hydroxyethyl)amino)-1-methyl-1H-imidazo[4,5-b]pyridin-2-yl)-5-(trifluoromethyl)phenol], for which the IC50 is, setting by setting: under setting [1], 100 to 1000 nM; under setting [2], 100 to 500 nM.
On to `Cc1cc(C(F)(F)F)cc(O)c1-c1nc2nc(NC3CCN(C)C3)ccc2n1C(C)C` (stereo not shown) [Example 10, 2-(1-isopropyl-5-((1-methylpyrrolidin-3-yl)amino)-1H-imidazo[4,5-b]pyridin-2-yl)-3-methyl-5-(trifluoromethyl)phenol], for which the IC50 under setting [1] was less than 100 nM.
Still for that read-out and setting: under `Cc1cc(C(F)(F)F)cc(O)c1-c1nc2nc(N(C)C)c(CO)cc2n1C` [Example 67, 2-[5-(dimethylamino)-6-(hydroxymethyl)-1-methyl-imidazo[4,5-b]pyridin-2-yl]-3-methyl-5-(trifluoromethyl)phenol] stands less than 100 nM.
The same measure, in the same setting: under `Cn1c(-c2ccc(C(F)(F)F)cc2O)nc2nc(N[C@@H]3CCC[C@@H](O)C3)ccc21` (relative stereo) [Example 22A, 2-(5-((3-hydroxycyclohexyl)amino)-1-methyl-1H-imidazo[4,5-b]pyridin-2-yl)-5-(trifluoromethyl)phenol] stands 100 to 1000 nM.
With `Cn1c(NCCO)nc2nc(-c3ccc(C(F)(F)F)cc3O)ccc21` [Example 82, 2-(2-((2-hydroxyethyl)amino)-1-methyl-1H-imidazo[4,5-b]pyridin-5-yl)-5-(trifluoro-methyl)phenol], under setting [2], the IC50 was greater than 1500 nM.
On to `Cc1cc(C(F)(F)F)cc(O)c1-c1nc2nc(N(C)[C@@H]3CCN(C)C3)cnc2n1C` [Example 60, (R)-3-methyl-2-(1-methyl-5-(methyl(1-methylpyrrolidin-3-Yl)amino)-1H-imidazo[4,5-b]pyrazin-2-yl)-5-(trifluoromethyl)phenol formate Salt], for which the IC50 under setting [1] is less than 100 nM.
The same measure, in the same setting: with `CNc1ccc2cn(-c3ccc(C(F)(F)F)cc3O)nc2n1` [Example 41, 2-[6-(methylamino)pyrazolo[3,4-b]pyridin-2-yl]-5-(trifluoromethyl)phenol] the figure was 100 to 1000 nM.
Same read-out and setting: under `Oc1cc(C(F)(F)F)ccc1-n1cc2ccc(OC(F)(F)F)nc2n1` [Example 45, 2-[6-(trifluoromethoxy)pyrazolo[3,4-b]pyridin-2-yl]-5-(trifluoromethyl)phenol] stands 100 to 1000 nM.
The same measure, in the same setting: under `Cc1cc(Cl)cc(O)c1-c1nc2nc(N3CCC(C)(O)C3)cnc2n1C` (single isomer, unassigned) [Example 86A] stands less than 100 nM.
Consider `Cn1c(-c2ccc(C(F)(F)F)cc2O)nc2nc(NCC(C)(C)O)ccc21` [Example 5, 2-(5-((2-hydroxy-2-methylpropyl)amino)-1-methyl-1H-imidazo[4,5-b]pyridin-2-yl)-5-(trifluoromethyl)phenol], for which the IC50 under setting [1] is 100 to 1000 nM.
As for `CN1CCC[C@@H](Nc2ccc3cn(-c4ccc(Cl)cc4O)nc3n2)C1` [Example 43, (R)-5-chloro-2-(6-((1-methylpiperidin-3-yl)amino)-2H-pyrazolo[3,4-b]pyridin-2-yl)phenol], the IC50 under setting [1] is less than 100 nM.
`Cc1cc(C(F)(F)F)cc(O)c1-c1nc2nc(NC3CCCC3O)ccc2n1C` (stereo not shown) [Example 36]: the IC50 under setting [3] lay within 100 to 1000 nM.
As for `CC(C)n1c(-c2ccc(C(F)(F)F)cc2O)nc2nc(NC3CCN(C)C3)ccc21` (single isomer, unassigned) [Example 10A, 2-(1-isopropyl-5-((1-methylpyrrolidin-3-yl)amino)-1H-imidazo[4,5-b]pyridin-2-yl)-5-(trifluoromethyl)phenol], the IC50 under setting [1] lay within 100 to 1000 nM.
On the same count and under the same terms, under `CCn1c(-c2c(C)cc(C(F)(F)F)cc2O)nc2nc(NC3CCN(C)C3)ccc21` (single isomer, unassigned) [Example 8, 2-(1-ethyl-5-((1-methylpyrrolidin-3-yl)amino)-1H-imidazo[4,5-b]pyridin-2-yl)-3-methyl-5-(trifluoromethyl)phenol] stands less than 100 nM; under `CCn1c(-c2ccc(C(F)(F)F)cc2O)nc2nc(N[C@@H]3CCCN(C)C3)ccc21` [Example 12, (R)-2-(1-ethyl-5-((1-methylpiperidin-3-yl)amino)-1H-imidazo[4,5-b]pyridin-2-yl)-5-(trifluoromethyl)phenol], 100 to 1000 nM.
In the case of `Oc1cc(C(F)(F)F)ccc1-n1cc2ccc(OC(F)F)nc2n1` [Example 44, 2-[6-(difluoromethoxy)pyrazolo[3,4-b]pyridin-2-yl]-5-(trifluoromethyl)phenol], the IC50 (Homo sapiens, 3 h) was 100 to 1000 nM.
With `CNc1ccc2c(n1)nc(-c1ccc(C(F)(F)F)cc1O)n2C` [Example 4, 2-(1-methyl-5-(methylamino)-1H-imidazo[4,5-b]pyridin-2-yl)-5-(trifluoromethyl)phenol], under setting [1], the IC50 fell in the range of 100 to 1000 nM.
Same read-out and setting: with `Cc1cc(Cl)cc(O)c1-c1nc2nc(N[C@@H]3CCN(C)C3)c(F)cc2n1C` [Example 47, (R)-5-chloro-2-(6-fluoro-1-methyl-5-((1-methylpyrrolidin-3-yl)amino)-1H-imidazo[4,5-b]pyridin-2-yl)-3-methylphenol formate Salt] the figure was less than 100 nM; with `Cc1cc(Cl)cc(O)c1-c1nc2nc(N3CCC(C)(O)CC3)cnc2n1C` [Example 80, 1-[2-(4-chloro-2-hydroxy-6-methyl-phenyl)-1-methyl-imidazo[4,5-b]pyrazin-5-yl]-4-methyl-piperidin-4-ol], less than 100 nM.
Still for that read-out and setting: under `OCCNc1ccc2cn(-c3ccc(C(F)(F)F)cc3O)nc2n1` [Example 48, 2-(6-((2-hydroxyethyl)amino)-2H-pyrazolo[3,4-b]pyridin-2-yl)-5-(trifluoromethyl)phenol] stands 100 to 1000 nM.
Take `COc1nc2c(nc1N[C@@H]1CCN(C)C1)nc(-c1c(C)cc(C(F)(F)F)cc1O)n2C` [Example 72, (R)-2-(6-methoxy-1-methyl-5-((1-methylpyrrolidin-3-yl)amino)-1H-imidazo[4,5-b]pyrazin-2-yl)-3-methyl-5-(trifluoromethyl)phenol]: the IC50 under setting [1] was less than 100 nM.
`COc1ccc2c(n1)nc(-c1ccc(C(F)(F)F)cc1O)n2C(C)C` [Example 35, 2-(1-isopropyl-5-methoxy-1H-imidazo[4,5-b]pyridin-2-yl)-5-(trifluoromethyl)phenol]: the IC50 under setting [1] was in the range of 100 to 1000 nM.
`Cc1cc(Cl)cc(O)c1-c1nc2nc(OC3CC(F)(F)C3)ccc2n1C` [Example 39, 5-chloro-2-(5-(3,3-difluorocyclobutoxy)-1-methyl-1H-imidazo[4,5-b]pyridin-2-yl)-3-methylphenol]: the IC50 (Homo sapiens, 3 h) lay within 100 to 1000 nM.
For `Cc1cc(F)cc(O)c1-c1nc2nc(N(C)[C@@H]3CCN(C)C3)cnc2n1C` [Example 74, (R)-5-fluoro-3-methyl-2-(1-methyl-5-(methyl(1-methylpyrrolidin-3-yl)amino)-1H-imidazo[4,5-b]pyrazin-2-yl)phenol], the IC50 under setting [1] was less than 100 nM.
For `CCn1c(-c2ccc(C(F)(F)F)cc2O)nc2nc(NC)ccc21` [Example 14, 2-(1-ethyl-5-(methylamino)-1H-imidazo[4,5-b]pyridin-2-yl)-5-(trifluoromethyl)phenol], the IC50 under setting [1] lay in the range of 100 to 1000 nM.
With `CN1CC[C@@H](Oc2cnc3c(n2)nc(-c2c(O)cc(Cl)cc2F)n3C)C1` [Example 87, 5-chloro-3-fluoro-2-[1-methyl-5-[(3R)-1-methylpyrrolidin-3-yl]oxy-imidazo[4,5-b]pyrazin-2-yl]phenol], under setting [1], the IC50 is less than 100 nM.
As to `Cc1cc(C(F)(F)F)cc(O)c1-c1nc2nc(NC3CCN(C)C3)ccc2n1C` (single isomer, unassigned) [Example 18B, 3-methyl-2-(1-methyl-5-((1-methylpyrrolidin-3-yl)amino)-1H-imidazo[4,5-b]pyridin-2-yl)-5-(trifluoromethyl)phenol], under setting [3], the IC50 lay in the range of 100 to 1000 nM.
In the case of `CNc1ccc2c(n1)nc(-c1c(C)cc(C(F)(F)F)cc1O)n2C(C)C` [Example 15, 2-(1-isopropyl-5-(methylamino)-1H-imidazo[4,5-b]pyridin-2-yl)-3-methyl-5-(trifluoromethyl)phenol], the IC50 under setting [1] was 100 to 1000 nM.
Same read-out and setting: under `Cn1c(-c2ccc(C(F)(F)F)cc2O)nc2nc(NCC3(O)COC3)ccc21` [Example 54, 3-(((2-(2-hydroxy-4-(trifluoromethyl)phenyl)-1-methyl-1H-imidazo[4,5-b]pyridin-5-yl)amino)methyl)oxetan-3-ol] stands 100 to 1000 nM.

The record behind these values is patent publication US20240101563A1, “NOVEL COMPOUNDS” (AC Immune SA, priority 2022, published 2024).
